Results from patent publication US10434067B2, “Composite formulation for oral administration comprising ezetimibe and rosuvastatin” (HANMI PHARM. CO., LTD., priority 2013, dated 2019).

Assay: Forced degradation test of ezetimibe
Format: physicochemical
Details: for Amount of ezetimibe (%): 2 hours
Protocol: The main ingredient, ezetimibe was precisely weighed to about 100 mg and put in a 200 mL volumetric flask. Then, about 20 mL of 90% (v/v) acetonitrile (ACN) was added thereto, and then, completely dissolved by performing ultrasonic extraction for about 10 minutes. Next, the resultant mixture was subjected to a forced degradation test according to each condition using control, oxidation, a strong base, strong acid, and heat as described below.
1) Control: About 10 mL of distilled water was added to the mixture, and the mixture was left in an oven at a temperature of about 60° C. for about 2 hours to proceed a reaction, cooled down to room temperature, and 10 mL of distilled water was dropped thereto.
2) Oxidation: About 10 mL of a 0.5% (v/v) hydrogen peroxide solution was added to the mixture, and the mixture was left in an oven at a temperature of about 60° C. for about 2 hours to proceed a reaction, cooled down to room temperature, and 10 mL of distilled water was dropped thereto.
3) Strong base: About 10 mL of 0.1N NaOH was added to the mixture, and the mixture was left in an oven at a temperature of about 60° C. for about 2 hours to proceed a reaction, cooled down to room temperature, and t 10 mL of 0.1N HCl was dropped thereto (neutralization).
4) Strong acid: About 10 mL of 0.1N HCl was added to the mixture, and the mixture was left in an oven at a temperature of about 60° C. for about 2 hours to proceed a reaction, cooled down to room temperature, and about 10 mL of 0.1N NaOH 10 mL was dropped thereto (neutralization).
5) Heat: About 10 mL of distilled water was added to the mixture, and the mixture was left in an oven at a temperature of about 105° C. for about 2 hours to proceed a reaction, cooled down to room temperature, and about 10 mL of distilled water was dropped thereto.
Then, each of the samples obtained from the degradation test was cooled down to room temperature, and an extract solvent (i.e., a mixed solution of about 0.1 ml of 85% phosphate solution and about 1,000 ml of acetonitrile) was added thereto for each condition above, thereby preparing a test liquid in an amount of 200 mL. Then, the test liquid was analyzed by ‘HPLC’ according to General Tests as set forth in the Korean Pharmacopoeia and calculated according to a ‘quantitation testing method’ and an ‘related compound testing method’, and the amounts of ezetimibe and its main degradation products having […] relative retention time (RRT) were calculated as shown in Table 9 below and FIG. 1.
In addition, the amounts of related compounds of each of the test liquids were calculated, and then, analyzed in connection with an RRT for respective test liquids.

For O=C1[C@H](CC[C@H](O)c2ccc(F)cc2)[C@@H](c2ccc(O)cc2)N1c1ccc(F)cc1 [ezetimibe], the “Total % of related compounds in test liquid” value (from here on “Total % of related compounds”) (Control) was 0.63%, the “related compound at relative retention time 0.15” value (Control) was “− (Less than 0.05%)” and the “related compound at relative retention time 0.18” value (Control) was “++ (0.10% or greater and less than 0.20%)”. The “related compound at relative retention time 0.26” value (Control) was “− (Less than 0.05%)”, the “related compound at relative retention time 0.47” value (Control) was “+++ (0.20% or greater and less than 0.50%)” and the “related compound at relative retention time 0.54” value (Control) was “− (Less than 0.05%)”. For the same compound, the “related compound at relative retention time 0.64” value (Control) was “− (Less than 0.05%)”, the “related compound at relative retention time 0.67” value (Control) was “− (Less than 0.05%)” and the “related compound at relative retention time 0.74” value (Control) was “− (Less than 0.05%)”. For the same compound, the “related compound at relative retention time 1.11” value (Control) was “− (Less than 0.05%)”, the “related compound at relative retention time 1.18” value (Control) was “− (Less than 0.05%)” and the “related compound at relative retention time 1.37” value (Control) was “++ (0.10% or greater and less than 0.20%)”. For the same compound, the “Amount of ezetimibe (%)” value (Control: distilled water, 60° C.) was 57.90%, the “Total % of related compounds” value (Heat) was 1.97% and the “related compound at relative retention time 0.15” value (Heat) was “− (Less than 0.05%)”. For the same compound, the “related compound at relative retention time 0.18” value (Heat) was “++ (0.10% or greater and less than 0.20%)”, the “related compound at relative retention time 0.26” value (Heat) was “− (Less than 0.05%)” and the “related compound at relative retention time 0.47” value (Heat) was “++++ (0.50% or greater and less than 1.0%)”. For the same compound, the “related compound at relative retention time 0.54” value (Heat) was “− (Less than 0.05%)”, the “related compound at relative retention time 0.64” value (Heat) was “− (Less than 0.05%)” and the “related compound at relative retention time 0.67” value (Heat) was “− (Less than 0.05%)”. The “related compound at relative retention time 0.74” value (Heat) was “− (Less than 0.05%)”, the “related compound at relative retention time 1.11” value (Heat) was “− (Less than 0.05%)” and the “related compound at relative retention time 1.18” value (Heat) was “+ (0.05% or greater and less than 0.10%)”. For the same compound, the “related compound at relative retention time 1.37” value (Heat) was “++++ (0.50% or greater and less than 1.0%)”, the “Amount of ezetimibe (%)” value (Heat: distilled water, 105° C.) was 0.21% and the “Total % of related compounds” value (Oxidation) was 0.61%. For the same compound, the “related compound at relative retention time 0.15” value (Oxidation) was “− (Less than 0.05%)”, the “related compound at relative retention time 0.18” value (Oxidation) was “++ (0.10% or greater and less than 0.20%)” and the “related compound at relative retention time 0.26” value (Oxidation) was “− (Less than 0.05%)”. The “related compound at relative retention time 0.47” value (Oxidation) was “+++ (0.20% or greater and less than 0.50%)”, the “related compound at relative retention time 0.54” value (Oxidation) was “− (Less than 0.05%)” and the “related compound at relative retention time 0.64” value (Oxidation) was “− (Less than 0.05%)”. The “related compound at relative retention time 0.67” value (Oxidation) was “− (Less than 0.05%)”, the “related compound at relative retention time 0.74” value (Oxidation) was “− (Less than 0.05%)” and the “related compound at relative retention time 1.11” value (Oxidation) was “− (Less than 0.05%)”. For the same compound, the “related compound at relative retention time 1.18” value (Oxidation) was “− (Less than 0.05%)”, the “related compound at relative retention time 1.37” value (Oxidation) was “++ (0.10% or greater and less than 0.20%)” and the “Amount of ezetimibe (%)” value (Oxidation: 0.5% hydrogen peroxide, 60° C.) was 61.06%. For the same compound, the “Total % of related compounds” value (Strong acid) was 0.45%, the “related compound at relative retention time 0.15” value (Strong acid) was “+ (0.05% or greater and less than 0.10%)” and the “related compound at relative retention time 0.18” value (Strong acid) was “++ (0.10% or greater and less than 0.20%)”. For the same compound, the “related compound at relative retention time 0.26” value (Strong acid) was “++ (0.10% or greater and less than 0.20%)”, the “related compound at relative retention time 0.47” value (Strong acid) was “− (Less than 0.05%)” and the “related compound at relative retention time 0.54” value (Strong acid) was “− (Less than 0.05%)”. For the same compound, the “related compound at relative retention time 0.64” value (Strong acid) was “− (Less than 0.05%)”, the “related compound at relative retention time 0.67” value (Strong acid) was “− (Less than 0.05%)” and the “related compound at relative retention time 0.74” value (Strong acid) was “− (Less than 0.05%)”. For the same compound, the “related compound at relative retention time 1.11” value (Strong acid) was “− (Less than 0.05%)”, the “related compound at relative retention time 1.18” value (Strong acid) was “− (Less than 0.05%)” and the “related compound at relative retention time 1.37” value (Strong acid) was “− (Less than 0.05%)”. The “Amount of ezetimibe (%)” value (Strong acid: 0.1N HCl, 60° C.) was 100.31%, the “Total % of related compounds” value (Strong base) was 21.48% and the “related compound at relative retention time 0.15” value (Strong base) was “+ (0.05% or greater and less than 0.10%)”. For the same compound, the “related compound at relative retention time 0.18” value (Strong base) was “+++++ (1.0% or greater)”, the “related compound at relative retention time 0.26” value (Strong base) was “+ (0.05% or greater and less than 0.10%)” and the “related compound at relative retention time 0.47” value (Strong base) was “+++ (0.20% or greater and less than 0.50%)”. The “related compound at relative retention time 0.54” value (Strong base) was “+++++ (1.0% or greater)”, the “related compound at relative retention time 0.64” value (Strong base) was “+++ (0.20% or greater and less than 0.50%)” and the “related compound at relative retention time 0.67” value (Strong base) was “++ (0.10% or greater and less than 0.20%)”. For the same compound, the “related compound at relative retention time 0.74” value (Strong base) was “+ (0.05% or greater and less than 0.10%)”, the “related compound at relative retention time 1.11” value (Strong base) was “+ (0.05% or greater and less than 0.10%)” and the “related compound at relative retention time 1.18” value (Strong base) was “++ (0.10% or greater and less than 0.20%)”. For the same compound, the “related compound at relative retention time 1.37” value (Strong base) was “+++++ (1.0% or greater)”, the “Amount of ezetimibe (%)” value (Strong base: 0.1N NaOH, 60° C.) was 1.56% and the “stability of ezetimibe (in words)” value (in a basic environment) was “unstable”. The “stability of ezetimibe (in words)” value (under an acidic condition) was “stable”.
